Where “and” joins values, the source holds several entries; their conditions need not be identical. Identical values can stand only once.
Columns and labels:
[1] = patient, specified example; cited from earlier work
[2] = system: LPS Pseudomonas aeruginosa; assay: Endotoxin batch (batch test I), LAL test, LPS from Pseudomonas aeruginosa in plasma; assay type: biochemical; settings: for LAL EU/ml: plasma + 0.5 ng/ml LPS, incubation 60 min, 37° C.
Protocol: (§1) 9 blood-sampling tubes (each measuring 9 ml) spiked with 5 IU heparin are removed from a donor. The plasma is centrifuged off and the cell pellet incubated on a roll mixer. The plasma is spiked with endotoxin (LPS) and used for batch test I:
LPS: Pseudomonas aeruginosa (L-7018 company Sigma batch: 128K4115, −70° C., at 100 μl 10−3 g/ml (1 mg/ml))
(§2) The LPS is used in the batch with a final concentration 0.5 ng/ml. The tests are carried out in 3 ml pyrogen-free glass vials. In batch test I, different PMB concentrations (company. Sigma, P-1004) are added in the duplicate approach and are incubated for 60 min on an overhead shaker at 37° C. (see Table 3.5).
(§3) In batch test 1, PMB concentrations with 0 (without PMB), 10, 100, 250, 500 and 1000 ng/ml are used. Sterile PMB solutions (autoclaved pyrogen-free at 121° C., 90 min) are produced for this purpose with the following concentrations (Table 3.3):
(§4) The endotoxins are measured in the form of EU/ml with the aid of a Limulus Amebocyte Lysate test (LAL) by Charles River.

[3] = PMB clearance (dialyser, depletion agent, patient) for dosing calculation; settings: specified example
Description: The following calculation example, besides the PMB patient clearance, also takes into consideration the clearance of a dialyser (dialysis filter) arranged in the extracorporeal blood circuit and the clearance of the carrier of the depletion agent. The calculation example presupposes an existing PMB serum concentration. This is provided by administration of a bolus prior to the start of the treatment, wherein the injection solutions described under Example 4 can be used for this purpose.
For the calculation of the dosing of polymyxin B via infusion in the extracorporeal blood circuit at a lipid feed point, the PMB clearance of the patient body, of the dialyser and of the depletion agent are taken into consideration: • The PMB dialysis clearance (CDial) can be determined experimentally and is dependent on the plasma flow and also on the dialysis filter type used. In the specified example, this is 60 ml/min. • The PMB clearance of the depletion agent (Cads) is dependent on the carrier material used and also on the filtrate flow.
The PMB total clearance (Ctotal) is given by addition from the individual PMB clearance rates. The resultant decrease of PMB is illustrated in FIG. 16. […]

[4] = system: LPS (L-7018 Pseud. aerug.); assay: PMB desorption over time: LPS inactivation by PMB-coated HPR10 in plasma (LAL test); assay type: biochemical, Pseudomonas aeruginosa; settings: PMB-coated HPR10 carrier, 1% in LPS-spiked plasma (5 ng/ml), 37° C.
Protocol: The PMB solution (Sigma, 10 mg/ml in dist. water) is autoclaved at 121° C. for 30 min, and the carrier (HPR10) is then coated in 15 ml Greiner tubes with PMB as follows (see Table 10.2): 3 ml carrier with 7.5 ml PMB solution
The coating is carried out overnight on a roll mixer at room temperature. The coated carrier is then washed twice with 10 ml NaCl solution (sterile), and a 50% suspension is produced. A tube without adsorber was included as control.
The plasma with 5 IU heparin is spiked with 5 ng/ml LPS (L-7018 Pseud. aerug. company Sigma batch: 128K4115). In the triplicate approach, 1% PMB-coated carrier is incubated with the LPS-spiked plasma (30 μl carrier+2970 μl LPS spiked plasma) at 37° C. in an overhead shaker and samples were taken at intervals (5, 15 and 60 min) for LAL analysis.
The analysis was performed using an LAL test.

[5] = system: blood cells; assay: Cytokine batch (batch test II): cytokine distribution by blood cells; assay type: cell-based; settings: LPS (E. coli)-spiked plasma, 4 hours incubation
Protocol: The plasma spiked with LPS and PMB is fed back following batch test 1 to the cell concentrate obtained from the blood donor in the ratio 1:1 (see Table 3.5). For the cytokine batch, the samples from batch test I were used with a PMB concentration of 0 (without PMB), 250, 500 and 1000 ng/ml. As control, a sample without LPS and with 1000 ng/ml PMB was included. Following the incubation times of 4 h and 12 h at 37° C. on a roll mixer (5 revolutions/min), samples were taken, centrifuged off and 50 μl plasma were frozen at −80° C. for the subsequent cytokine quantification.

[6] = system: LPS E. coli; assay: Endotoxin batch (batch test I), LAL test, LPS from E. coli in plasma; assay type: biochemical; settings: for LAL EU/ml: plasma + 0.5 ng/ml LPS, incubation 60 min, 37° C.
Protocol: as §1, §2, §3, §4

[7] = offset at least in part by the necessary higher dosing; cited from earlier work
[8] = PMB concentration in the plasma 50 to 300 ng/ml (0.05 to 0.3 μg/ml)

## polymyxin B [PMB]
[1]
  half-life for PMB: 13.6 h
[2]; PMB 10 ng/ml
  LAL EU/ml: 0.178 EU/ml and 0.167 EU/ml
[2]; PMB 100 ng/ml
  LAL EU/ml: 0.112 EU/ml and 0.137 EU/ml
[2]; PMB 250 ng/ml
  LAL EU/ml: 0.108 EU/ml and 0.123 EU/ml
[2]; PMB 500 ng/ml
  LAL EU/ml: 0.091 EU/ml and 0.081 EU/ml
[2]; PMB 1000 ng/ml
  LAL EU/ml: 0.062 EU/ml and 0.061 EU/ml
[2]; [8]
  inhibition of LPS from Pseudomonas aeruginosa: strong inhibition
[3]; dependent on carrier material and filtrate flow
  PMB clearance of the depletion agent (Cads): 45 mL/min
[3]; dependent on plasma flow and dialysis filter type
  PMB dialysis clearance (CDial): 60 mL/min
[4]
  LPS inactivation after 5 minutes compared with after 60 minutes of incubation: almost the same
[5]; very low PMB concentrations (250, 500, 1000 ng/ml)
  inhibition of the cytokine distribution (TNF-alpha, IL-1beta, IL-6, IL-8): strong inhibition
[5]; very low PMB concentrations
  inhibition of the key mediator TNF-alpha: particularly pronounced
[6]; PMB 10 ng/ml
  LAL EU/ml: 0.77 EU/ml and 0.871 EU/ml
[6]; PMB 100 ng/ml
  LAL EU/ml: 0.379 EU/ml and 0.382 EU/ml
[6]; PMB 250 ng/ml
  LAL EU/ml: 0.281 EU/ml and 0.29 EU/ml
[6]; PMB 500 ng/ml
  LAL EU/ml: 0.209 EU/ml
[6]; PMB 1000 ng/ml
  LAL EU/ml: 0.154 EU/ml and 0.16 EU/ml
[6]; [8]
  inhibition of LPS from E. coli: strong inhibition

## Colistin
[7]
  nephrotoxicity comparison (in words): less nephrotoxic than polymyxin B

Source: patent US9861735B2, “Extracorporeal perfusion apparatus” (Fresenius Medical Care Deutschland GmbH, priority 2012, dated 2018)
